This passage reports IC50 results from ChEMBL document CHEMBL4800725 (2021).

The source made the active and inactive calls. No cut-off for these calls is given here.

The target in one experiment is T1, Vanin 1 (Rattus norvegicus, UniProt Q4KLZ0).
T1 sequence (Q4KLZ0 whole entry): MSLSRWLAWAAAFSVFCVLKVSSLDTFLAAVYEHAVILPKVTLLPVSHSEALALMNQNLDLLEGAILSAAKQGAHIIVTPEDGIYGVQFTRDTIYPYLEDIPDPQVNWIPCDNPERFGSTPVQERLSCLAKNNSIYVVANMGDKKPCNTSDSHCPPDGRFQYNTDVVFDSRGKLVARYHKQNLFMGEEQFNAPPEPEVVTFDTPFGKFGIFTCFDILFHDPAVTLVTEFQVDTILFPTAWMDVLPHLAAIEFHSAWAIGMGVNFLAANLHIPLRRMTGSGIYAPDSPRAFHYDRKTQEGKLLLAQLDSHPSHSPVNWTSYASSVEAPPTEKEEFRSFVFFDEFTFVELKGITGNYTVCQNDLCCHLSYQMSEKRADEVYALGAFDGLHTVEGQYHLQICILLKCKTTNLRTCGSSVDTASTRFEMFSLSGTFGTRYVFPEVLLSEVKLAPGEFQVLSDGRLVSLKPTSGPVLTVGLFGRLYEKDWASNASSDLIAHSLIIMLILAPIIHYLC

Experiment [1] has as its target T2, Pantetheinase (Mus musculus, UniProt Q9Z0K8).
T2 sequence (Q9Z0K8 whole entry): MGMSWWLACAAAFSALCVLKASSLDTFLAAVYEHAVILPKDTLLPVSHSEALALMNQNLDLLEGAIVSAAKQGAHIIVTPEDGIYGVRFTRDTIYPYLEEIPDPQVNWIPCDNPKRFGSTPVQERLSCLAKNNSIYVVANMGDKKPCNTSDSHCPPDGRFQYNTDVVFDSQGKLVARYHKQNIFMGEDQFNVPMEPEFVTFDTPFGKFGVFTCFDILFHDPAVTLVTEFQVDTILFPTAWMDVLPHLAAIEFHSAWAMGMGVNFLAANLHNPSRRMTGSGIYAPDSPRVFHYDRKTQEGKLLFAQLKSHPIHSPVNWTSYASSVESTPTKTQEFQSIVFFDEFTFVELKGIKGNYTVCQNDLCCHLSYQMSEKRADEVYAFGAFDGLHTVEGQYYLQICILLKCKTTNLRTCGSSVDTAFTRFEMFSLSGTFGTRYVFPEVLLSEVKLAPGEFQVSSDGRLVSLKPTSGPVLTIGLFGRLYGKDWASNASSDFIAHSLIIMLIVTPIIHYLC
The experiment in a line: Mouse plasma vanin-1 assay.

Experiment [2] addresses T2, Pantetheinase. The experiment is described as follows: Mouse recombinant vanin-1 assay.
The target of experiment [3] is T3, Pantetheinase (Homo sapiens, UniProt O95497).
T3 sequence (O95497 whole entry): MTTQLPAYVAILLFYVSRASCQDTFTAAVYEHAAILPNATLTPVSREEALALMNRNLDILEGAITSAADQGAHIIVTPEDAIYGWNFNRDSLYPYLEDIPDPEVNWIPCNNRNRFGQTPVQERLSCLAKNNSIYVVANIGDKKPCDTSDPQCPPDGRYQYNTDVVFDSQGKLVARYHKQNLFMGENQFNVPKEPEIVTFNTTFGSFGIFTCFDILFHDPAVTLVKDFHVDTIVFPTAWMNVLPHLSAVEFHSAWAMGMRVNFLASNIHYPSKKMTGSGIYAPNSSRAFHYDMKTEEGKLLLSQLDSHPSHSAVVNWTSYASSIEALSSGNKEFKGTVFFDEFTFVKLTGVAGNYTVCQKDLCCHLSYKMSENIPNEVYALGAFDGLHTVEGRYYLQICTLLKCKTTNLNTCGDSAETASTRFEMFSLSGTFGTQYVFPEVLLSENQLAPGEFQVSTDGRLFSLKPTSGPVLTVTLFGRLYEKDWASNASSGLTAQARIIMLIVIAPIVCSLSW
The experiment is described as follows: Human plasma vanin-1 assay.

Experiment [4] has as its target T3, Pantetheinase. The experiment is described as follows: Human recombinant vanin-1 assay.

On to `O=C(c1cnc(NCc2cnccn2)nc1)N1CCC2(CCOCC2)C1` [PFI-653], for which the IC50 on Vanin 1 is 12 nM (active); at Pantetheinase [1], 53.4 nM (active); at Pantetheinase [2], 24.5 nM (active).
Take `Cc1nc(NCc2cnccn2)ncc1C(=O)N1CCC2(CCOCC2)C1` [PFI-653-N]: the IC50 is 3000 nM (not active) at Pantetheinase [3], 15000 nM (not active) against Pantetheinase [1], 17600 nM (not active) at Pantetheinase [4] and 15000 nM (not active) on Pantetheinase [2].
